Source: patent US10913711B2, “Potent and selective inhibitors of monoamine transporters; method of making; and use thereof” (priority 2013, dated 2021)
Like-named read-outs stand apart in the source and are kept apart here.

Key:
NET = NET (Rattus norvegicus (Rat), UniProt Q9WTR4); test: Norepinephrine Transporter Binding Assay ([3H]Nisoxetine, rat frontal cortex membranes)
Experimental: Binding affinities of all compounds were evaluated at the DAT, SERT, and NET in rat brain membranes using previously described methods:
Norepinephrine Transporter Binding Assay. Brains from male Sprague-Dawley rats weighing 200-225 g (Taconic Labs, Germantown, N.Y.) were removed, frontal cortex dissected and rapidly frozen. Membranes were prepared by homogenizing tissues in 20 volumes (w/v) of 50 mM Tris containing 120 mM NaCl and 5 mM KCl, (pH 7.4 at 25° C.), using a Brinkman Polytron and centrifuged at 50,000×g for 10 min at 4° C. The resulting pellet was resuspended in buffer, recentrifuged and resuspended in buffer to a concentration of 80 mg/mL. Ligand binding experiments were conducted in assay tubes containing 0.5 mL buffer for 60 min at 0-4° C. […] Nonspecific binding was determined using 1 mM desipramine. Incubations were terminated by rapid filtration through Whatman GF/B filters, presoaked in 0.05% polyethylenimine, using a Brandel R48 filtering manifold (Brandel Instruments Gaithersburg, Md.). The filters were washed twice with 3 mL cold buffer and transferred to scintillation vials. Beckman Ready Value (3.0 mL) was added and the vials were counted using a Beckman 6000 liquid scintillation counter (Beckman Coulter Instruments, Fullerton, Calif.). […] All compounds were tested as racemic mixtures.

human SERT wild type = human SERT wild type (Homo sapiens (Human), UniProt P31645); type: cell-based; settings: read-out: hSERT WT KM
From the text: (§1) Molecular Pharmacology Site-directed mutagenesis: Synthetic cDNA encoding the human DAT (synDAT) were subcloned into pcDNA3 (Invitrogen, Carlsbad, Calif.). cDNA encoding the human SERT (hSERT) was cloned into the pUbilz expression vector. Mutations herein were generated by the QuickChange method (adapted from Stratagene, La Jolla, Calif.) and confirmed by restriction enzyme mapping and DNA sequencing. Positive clones were amplified by transformation into XL1 blue competent cells (Stratagene) and positive colony picked and grown in LB media over night at 37° C. in an orbital incubator (Infors) @ 200 rpm. Plasmids were harvested using the maxi prep kit provided by Qiagen according to the manufacturer's manual.
(§2) Uptake assays were performed essentially as previously described to Cha, J. H.; Zou, M. F.; Adkins, E. M.; Rasmussen, S. G.; Loland, C. J.; Schoenenberger, B.; Gether, U.; Newman, A. H. Rhodamine-Labeled 2beta-Carbomethoxy-3beta-(3,4-Dichlorophenyl)Tropane Analogues as High-Affinity Fluorescent Probes for the Dopamine Transporter. […] Transiently transfected COS-7 cells were plated in 12-well (3*10^5 cells/well) or 24-well dishes (10^5 cells/well) coated with poly-ornithine to achieve an uptake level of no more than 10% of total added radioligand. The uptake assays were carried out 2 days after transfection. Prior to the experiment, the cells were washed once in 500 μl of uptake buffer buffer (25 mM 4-(2-hydroxyethyl)-1-piperazineethanesulfonic acid (HEPES), 130 mM NaCl, 5.4 mM KCl, 1.2 mM CaCl2, 1.2 mM MgSO4, 1 mM L-ascorbic acid, 5 mM D-glucose, and 1 μM of the catechol-O-methyltransferase inhibitor Ro 41-0960 (Sigma), pH 7.4) at room temperature (RT). […] All samples were transferred to 24-well counting plates and 500 μL (or 600 μL) of Opti-phase Hi Safe 3 scintillation fluid (Perkin Elmer) was added followed by counting of the plates in a Wallac Tri-Lux β-scintillation counter (Perkin Elmer). Nonspecific uptake was determined in the presence of 5 μM paroxetine for hSERT and 50 μM nomifensine for hDAT expressing cells. All determinations were performed in triplicate.

human SERT T497A mutant = human SERT T497A mutant (Homo sapiens (Human), UniProt P31645, T497A); type: cell-based; settings: read-out: hSERT T497A KM
From the text: as §1, §2

human DAT A480T mutant = human DAT A480T mutant (Homo sapiens (Human), UniProt Q01959, A480T); test: [3H]DA uptake inhibition in intact COS7 cells, hDAT A480T; settings: read-out: hDAT A480T Ki [S.E. interval], [3H]DA uptake inhibition potency
human DAT wild type = human DAT wild type (Homo sapiens (Human), UniProt Q01959); test: [3H]DA uptake inhibition in intact COS7 cells, hDAT WT; type: cell-based; settings: [3H]DA uptake inhibition potency, read-out: hDAT WT Ki [S.E. interval]

Chain of NET (Q9WTR4 entry or part of it): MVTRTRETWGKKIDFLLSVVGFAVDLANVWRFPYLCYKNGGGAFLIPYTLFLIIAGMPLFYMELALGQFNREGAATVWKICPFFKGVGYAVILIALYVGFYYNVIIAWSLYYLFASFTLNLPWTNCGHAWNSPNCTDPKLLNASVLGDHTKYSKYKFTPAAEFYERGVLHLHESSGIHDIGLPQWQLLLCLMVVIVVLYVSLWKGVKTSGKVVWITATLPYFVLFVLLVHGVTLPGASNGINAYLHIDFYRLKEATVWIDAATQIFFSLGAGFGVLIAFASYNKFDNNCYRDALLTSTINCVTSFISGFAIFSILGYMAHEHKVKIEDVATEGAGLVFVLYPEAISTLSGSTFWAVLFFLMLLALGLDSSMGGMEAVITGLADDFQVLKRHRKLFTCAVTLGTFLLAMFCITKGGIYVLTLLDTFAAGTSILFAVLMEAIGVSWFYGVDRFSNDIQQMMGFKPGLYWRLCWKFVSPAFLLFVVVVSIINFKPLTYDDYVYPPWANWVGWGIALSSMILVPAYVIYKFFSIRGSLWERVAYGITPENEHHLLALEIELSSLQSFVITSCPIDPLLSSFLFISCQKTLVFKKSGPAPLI
Chain of human DAT A480T mutant (Q01959 whole entry A480T): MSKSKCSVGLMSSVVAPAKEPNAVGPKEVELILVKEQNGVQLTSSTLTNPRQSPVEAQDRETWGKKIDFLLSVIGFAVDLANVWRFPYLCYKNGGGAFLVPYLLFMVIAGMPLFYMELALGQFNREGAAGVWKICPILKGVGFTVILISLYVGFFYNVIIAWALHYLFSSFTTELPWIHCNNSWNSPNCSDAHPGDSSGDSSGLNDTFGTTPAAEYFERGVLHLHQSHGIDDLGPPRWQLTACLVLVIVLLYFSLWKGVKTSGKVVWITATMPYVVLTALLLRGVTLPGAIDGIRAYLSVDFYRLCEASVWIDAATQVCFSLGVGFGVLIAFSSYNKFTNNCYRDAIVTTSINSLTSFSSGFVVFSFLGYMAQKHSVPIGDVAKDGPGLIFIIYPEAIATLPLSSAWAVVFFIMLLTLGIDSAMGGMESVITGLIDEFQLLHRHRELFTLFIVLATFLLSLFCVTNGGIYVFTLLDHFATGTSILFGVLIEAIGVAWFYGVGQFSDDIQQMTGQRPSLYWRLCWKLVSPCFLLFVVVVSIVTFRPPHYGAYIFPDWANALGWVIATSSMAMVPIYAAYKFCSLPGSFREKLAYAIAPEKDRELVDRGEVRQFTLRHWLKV

Row | SMILES | Ki (NET) | further results
1 | O=C(CSC(c1ccc(Br)cc1)c1ccc(Br)cc1)NCCCc1ccccc1 [Compound 2x, 2-((Bis(4-bromophenyl)methyl)thio)-N-(3-phenylpropyl)acetamide] | 36.3 µM | –
2 | Cc1ccc(C(c2ccc(C)cc2)[S+]([O-])CC(N)=O)cc1 (stereo not shown) [Compound 3a, 2-((Di-p-tolylmethyl)sulfinyl)acetamide] | > 100 µM | –
3 | O=C(CSC(c1ccc(F)cc1)c1ccc(F)cc1)NCC1CC1 [Compound 2p, 2-((Bis(4-fluorophenyl)methyl)thio)-N-(cyclopropylmethyl)acetamide] | 57.6 µM | –
4 | Fc1ccc(C(SCCN2CCN(CCCc3ccccc3)CC2)c2ccc(F)cc2)cc1 [Compound 7b, 1-(2-((Bis(4-fluorophenyl)methyl)thio)ethyl)-4-(3-phenylpropyl)piperazine] | 1.89 ± 0.116 µM | –
5 | [O-][S+](CCN1CCN(CCCc2ccccc2)CC1)C(c1ccc(F)cc1)c1ccc(F)cc1 (stereo not shown) [Compound 8b, 1-(2-((Bis(4-fluorophenyl)methyl)sulfinyl)ethyl)-4-(3-phenylpropyl)piperazine] | 4.28 ± 0.343 µM | –
6 | C=CCNC(=O)CSC(c1ccccc1)c1ccccc1 [Compound 2j, N-Allyl-2-(benzhydrylthio)acetamide] | > 230 µM | –
7 | O=C(CSC(c1ccc(F)cc1)c1ccc(F)cc1)NCCCc1ccccc1 [Compound 2v, 2-((Bis(4-fluorophenyl)methyl)thio)-N-(3-phenylpropyl)acetamide] | > 100 µM | –
8 | NCCc1c[nH]c2ccc(O)cc12 [Compound 5-HT, 5-hydroxytryptamine, reference compound] | – | Km (human SERT wild type): 0.52 µM; Km (human SERT T497A mutant): 1.09 µM
9 | OC(Cc1ccccc1)CN1CCN(CCSC(c2ccc(F)cc2)c2ccc(F)cc2)CC1 (racemic) [Compound 9j, 1-(4-(2-((Bis(4-fluorophenyl)methyl)thio)ethyl)piperazin-1-yl)-3-phenylpropan-2-ol] | 1.95 ± 0.227 µM | –
10 | O=C(CSC(c1ccc(Br)cc1)c1ccc(Br)cc1)NCC1CC1 [Compound 2q, 2-((Bis(4-bromophenyl)methyl)thio)-N-(cyclopropylmethyl)acetamide] | > 100 µM | –
11 | O=C(CSC(c1ccc(Br)cc1)c1ccc(Br)cc1)NCCCCc1ccccc1 [Compound 2z, 2-((Bis(4-bromophenyl)methyl)thio)-N-(4-phenylbutyl)acetamide] | > 100 µM | NET Ki (nM) ± S.E.M. (NET; Table 1, thioacetamide and sulfinylacetamide analogs, rat brain membranes, racemic mixtures): no displacement
12 | [O-][S+](CCNCCCc1ccccc1)C(c1ccc(Cl)cc1)c1ccc(Cl)cc1 (stereo not shown) [Compound 5d, N-(2-((bis(4-chlorophenyl)methyl)sulfinyl)ethyl)-3-phenylpropan-1-amine] | 5.8 µM | –
13 | CCCCNCCSC(c1ccccc1)c1ccccc1 [Compound 4e, N-(2-(benzhydrylthio)ethyl)butan-1-amine] | 11.5 µM | –
14 | NC(=O)C[S+]([O-])C(c1cccc(F)c1)c1cccc(F)c1 (stereo not shown) [Compound 3c, 2-((Bis(3-fluorophenyl)methyl)sulfinyl)acetamide] | > 100 µM | –
15 | O=C(CSC(c1ccccc1)c1ccccc1)NCC1CC1 [Compound 2o, 2-(Benzhydrylthio)-N-(cyclopropylmethyl)acetamide] | > 100 µM | –
16 | CCCNC(=O)CSC(c1ccc(F)cc1)c1ccc(F)cc1 [Compound 2l, 2-((Bis(4-fluorophenyl)methyl)thio)-N-propylacetamide] | 61.7 µM | –
17 | CC(O)CN1CCN(CC[S+]([O-])C(c2ccccc2)c2ccccc2)CC1 (racemic) [Compound 10a, 1-(4-(2-(Benzhydrylsulfinyl)ethyl)piperazin-1-yl)propan-2-ol] | > 100 µM | –
18 | NC(=O)CSC(c1cccc(Cl)c1)c1cccc(Cl)c1 [Compound 2e, 2-((Bis(3-chlorophenyl)methyl)thio)acetamide] | 34 µM | –

Row | SMILES | Ki (NET) | further results
19 | NC(=O)C[S+]([O-])C(c1ccccc1)c1cccc(Br)c1 (stereo not shown) [Compound 3e, 2-(((3-Bromophenyl)(phenyl)methyl)sulfinyl)acetamide] | > 100 µM | –
20 | [O-][S+](CCNCCCc1ccccc1)C(c1ccc(F)cc1)c1ccc(F)cc1 (stereo not shown) [Compound 5c, N-(2-((bis(4-fluorophenyl)methyl)sulfinyl)ethyl)-3-phenylpropan-1-amine] | 3.28 µM | –
21 | NC(=O)CSC(c1ccccc1)c1ccccc1 [Compound 2a, 2-(Benzhydrylthio)acetamide] | > 100 µM | –
22 | c1ccc(CCCN2CCN(CCSC(c3ccccc3)c3ccccc3)CC2)cc1 [Compound 7a, 1-(2-(Benzhydrylthio)ethyl)-4-(3-phenylpropyl)piperazine] | – | Ki (NET; Table 5, piperazinyl derivatives, rat brain membranes, read-out: NET Ki ± SEM): 0.988 ± 0.0228 µM
23 | NC(=O)C[S+]([O-])C(c1cccc(Cl)c1)c1cccc(Cl)c1 (stereo not shown) [Compound 3d, 2-((Bis(3-chlorophenyl)methyl)sulfinyl)acetamide] | > 100 µM | –
24 | c1ccc(CCCNCCSC(c2ccccc2)c2ccccc2)cc1 [Compound 4f, N-(2-(benzhydrylthio)ethyl)-3-phenylpropan-1-amine] | 3.91 µM | –
25 | CCCNC(=O)CSC(c1ccc(Br)cc1)c1ccc(Br)cc1 [Compound 2n, 2-((Bis(4-bromophenyl)methyl)thio)-N-propylacetamide] | 10.6 µM | –
26 | CNC(=O)CSC(c1ccccc1)c1ccccc1 [Compound 2g, 2-(Benzhydrylthio)-N-methylacetamide] | 27.3 µM | Ki (human DAT A480T mutant): 3.6 µM; Ki (human DAT wild type): 5.5 µM
27 | CNC(=O)C[S+]([O-])C(c1ccccc1)c1ccccc1 (stereo not shown) [Compound 3f, 2-(Benzhydrylsulfinyl)-N-methylacetamide] | > 100 µM | –
28 | OC(Cc1ccccc1)CN1CCN(CCSC(c2ccccc2)c2ccccc2)CC1 (racemic) [Compound 9g, 1-(4-(2-(Benzhydrylthio)ethyl)piperazin-1-yl)-3-phenylpropan-2-ol] | 1.43 ± 0.118 µM | –
29 | CCCNC(=O)CSC(c1ccccc1)c1ccccc1 [Compound 2k, 2-(Benzhydrylthio)-N-propylacetamide] | 55.9 µM | –
30 | O=C(C[S+]([O-])C(c1ccc(Br)cc1)c1ccc(Br)cc1)NCCCc1ccccc1 (stereo not shown) [Compound 3g, 2-(Bis(4-bromophenyl)methylsulfinyl)-N-(3-phenylpropyl)acetamide] | > 100 µM | –
31 | [O-][S+](CCN1CCN(CCCc2ccccc2)CC1)C(c1ccccc1)c1ccccc1 (stereo not shown) [Compound 8a, 1-(2-(Benzhydrylsulfinyl)ethyl)-4-(3-phenylpropyl)piperazine] | 5.54 ± 0.808 µM | –
32 | CC(O)CN1CCN(CCSC(c2ccccc2)c2ccccc2)CC1 (racemic) [Compound 9a, 1-(4-(2-(Benzhydrylthio)ethyl)piperazin-1-yl)propan-2-ol] | 44.5 ± 2.4 µM | –
33 | CC(O)CN1CCN(CC[S+]([O-])C(c2ccc(F)cc2)c2ccc(F)cc2)CC1 (racemic) [Compound 10d, 1-(4-(2-((Bis(4-fluorophenyl)methyl)sulfinyl)ethyl)piperazin-1-yl)propan-2-ol] | > 100 µM | –
34 | CCCCNCC[S+]([O-])C(c1ccccc1)c1ccccc1 (stereo not shown) [Compound 5b, N-(2-(benzhydrylsulfinyl)ethyl)butan-1-amine] | > 140 µM | –
35 | CCCCNC(=O)CSC(c1ccccc1)c1ccccc1 [Compound 2r, 2-(Benzhydrylthio)-N-butylacetamide] | > 0.1 µM | –
36 | [O-][S+](CCN1CCN(CC(O)Cc2ccccc2)CC1)C(c1ccccc1)c1ccccc1 (racemic) [Compound 10g, 1-(4-(2-(Benzhydrylsulfinyl)ethyl)piperazin-1-yl)-3-phenylpropan-2-ol] | 25.3 ± 2.04 µM | –
